Consider 29 molecules from publication PMC5354814, “In silico and in vitro drug screening identifies new therapeutic approaches for Ewing sarcoma” (Oncotarget, 2016).

The structures appear in SMILES notation. Where a name gives a salt, the structure may show the parent alone. Bounds are passed on as bounds.

For orientation: inhibition means the percentage by which the read-out fell short of the control.

What all share (assay): In vitro high-throughput screen of FDA-approved drug library (CellTiter-Glo)
Holding throughout (type): cell-based

One experiment deals with A673. The following applies: 1 μmol/L drug, 72 hours; for inhibition at 1 µM: Homo sapiens, A673, read-out: % Inhibition A673. On the procedure:
(§1) We screened, in parallel to the three computational approaches, an FDA-approved drug library containing 2,316 drugs (1,536 unique chemical entities). […] The drug screening study protocol employed is summarized in Supplementary Table S1.
(§2) Cells were grown to 80–90% confluence, harvested and aliquoted into 384-well plates (black μClear microplates, Greiner bio-one, Germany) at concentrations of 750–1,500 cells per well in a total volume of 25 μl/well using a Matrix Wellmate (Thermo Scientific). Cells were cultured for 72 hours in a 5% CO2 atmosphere at 37°C. Aliquots of 25 μl CellTiter-Glo® Reagent (Promega) were added directly to each well, the plates were incubated at room temperature for 20 min and the luminescence signal was measured according to the manufacturer's protocol. The measurements were made using Infinite® M200 Pro plate reader (Tecan, Switzerland). […] Data were normalized to percentage inhibition. […]
(§3) (A) Color scale for drug inhibition values. […]

Another experiment has as its system Hs 919.T. Particulars: 1 μmol/L drug, 72 hours, control cell line; for inhibition at 1 µM: read-out: % Inhibition Hs 919.T. On the procedure:
as §1, §2, §3

The test system of another experiment is RD-ES. Particulars: 1 μmol/L drug, 72 hours; for inhibition at 1 µM: RD-ES, read-out: % Inhibition RD-ES. On the procedure: as §1, §2, §3
In a further experiment the test system is SK-ES-1. Particulars: 1 μmol/L drug, 72 hours; for inhibition at 1 µM: Homo sapiens, SK-ES1, read-out: % Inhibition SK-ES-1. On the procedure:
as §1, §2, §3

With `C[C@@H]1C[C@@H]([C@H](O)CC2CC(=O)NC(=O)C2)C(=O)[C@@H](C)C1` [Cycloheximide], the inhibition at 1 µM with A673 is 77%; in the experiment on Hs 919.T., under 50%; in the experiment on RD-ES, 74%; in the experiment with SK-ES-1, 81%.
As to `Nc1ccn([C@@H]2O[C@H](CO)[C@@H](O)[C@@H]2O)c(=O)n1` [Cytosine β-D-arabinofuranoside], the “% Inhibition A673” value in the experiment on A673 worked out at 84%. Besides, in the experiment on Hs 919.T., the “% Inhibition Hs 919.T.” value is listed as under 50%. In the experiment on RD-ES, the “% Inhibition RD-ES” value is recorded as 93%. In addition, the “% Inhibition SK-ES-1” value with SK-ES-1 is on record as 98%.
As to `CCN(CC)C(=S)SSC(=S)N(CC)CC` [Disulfiram], the inhibition at 1 µM in the experiment on A673 was 99%; in the experiment on Hs 919.T., under 50%; with RD-ES, 96%; with SK-ES-1, 95%.
On to `O=c1c2ccccc2[se]n1-c1ccccc1` [Ebselen], for which the inhibition at 1 µM in the experiment with A673 was 93%; in the experiment with Hs 919.T., under 50%; in the experiment on RD-ES, 95%; in the experiment with SK-ES-1 it was 96%.
In the case of `C[C@]12CC[C@@H]3c4ccc(O)cc4CC[C@H]3[C@@H]1CC[C@@H]2O` [Estradiol], the inhibition at 1 µM in the experiment on A673 was 65%; with Hs 919.T. it was under 50%; in the experiment on RD-ES it was under 50%; in the experiment with SK-ES-1 it was under 50%.
Turning to `COc1cc([C@@H]2c3cc4c(cc3[C@@H](O[C@@H]3O[C@@H]5CO[C@@H](C)O[C@H]5[C@H](O)[C@H]3O)[C@H]3COC(=O)[C@H]23)OCO4)cc(OC)c1O` [Etoposide], the inhibition at 1 µM in the experiment on A673 is under 50%; in the experiment on Hs 919.T., under 50%; with RD-ES it was 84%; in the experiment on SK-ES-1 it was 84%.
Take `COC(=O)Nc1nc2ccc(Sc3ccccc3)cc2[nH]1` [Fenbendazole]: the inhibition at 1 µM in the experiment on A673 was 75%; with Hs 919.T. it was under 50%; in the experiment with RD-ES, 86%; with SK-ES-1, 78%.
For `O=c1[nH]c(=O)n([C@H]2C[C@H](O)[C@@H](CO)O2)cc1F` [Floxuridine], the inhibition at 1 µM with A673 is 68%; with Hs 919.T., under 50%; with RD-ES it was 92%; in the experiment on SK-ES-1, 56%.
Consider `COC(=O)Nc1nc2cc(C(=O)c3ccc(F)cc3)ccc2[nH]1` [Flubendazole], for which the inhibition at 1 µM in the experiment on A673 was 77%; in the experiment on Hs 919.T. it was under 50%; with RD-ES, 86%; with SK-ES-1, 86%.
Take `CCc1c2c(nc3ccc(OC(=O)N4CCC(N5CCCCC5)CC4)cc13)-c1cc3c(c(=O)n1C2)COC(=O)[C@]3(O)CC.Cl` [Irinotecan Hydrochloride]: the “% Inhibition A673” value in the experiment on A673 was determined as 83%. The “% Inhibition Hs 919.T.” value in the experiment on Hs 919.T. is under 50%. The “% Inhibition RD-ES” value with RD-ES is on record as 99%. The “% Inhibition SK-ES-1” value with SK-ES-1 amounted to 98%.
On to `NNC(=O)c1ccncc1` [Isoniazid], for which the inhibition at 1 µM with A673 is 56%; in the experiment on Hs 919.T. it was under 50%; in the experiment on RD-ES it was under 50%; in the experiment on SK-ES-1, under 50%.
In the case of `CN(Cc1cnc2nc(N)nc(N)c2n1)c1ccc(C(=O)N[C@@H](CCC(=O)O)C(=O)O)cc1` [L-Glutamic acid, N-[4-[[(2,4-diamino-6-pteridinyl)methyl]methylamino]benzoyl]], the “% Inhibition A673” value in the experiment with A673 turned out to be 85%. Also, the “% Inhibition Hs 919.T.” value with Hs 919.T. is under 50%. In addition, the “% Inhibition RD-ES” value in the experiment on RD-ES is 77%. Also, in the experiment with SK-ES-1, the “% Inhibition SK-ES-1” value stood at 57%.
On to `COC(=O)Nc1nc2ccc(C(=O)c3ccccc3)cc2[nH]1` [Mebendazole], for which the inhibition at 1 µM is 94% in the experiment with A673, under 50% in the experiment on Hs 919.T., 95% in the experiment with RD-ES and 96% in the experiment with SK-ES-1.
The like results for `N[C@@H](Cc1ccc(N(CCCl)CCCl)cc1)C(=O)O` [Melphalan] were, in that order, under 50%, under 50%, 95% and 91%.
The like results for `S=c1[nH]cnc2nc[nH]c12` [Mercaptopurine] were, in that order, under 50%, under 50%, under 50% and 57%.
The like results for `C[C@]12CCC(=O)C=C1CC[C@@H]1[C@@H]2CC[C@@]2(C)[C@H]1CC[C@]2(C)O` [Methyltestosterone] were, in that order, under 50%, under 50%, 73% and under 50%.
Regarding `COc1c(C)c2c(c(O)c1C/C=C(\C)CCC(=O)O)C(=O)OC2` [Mycophenolic Acid], the inhibition at 1 µM is under 50% in the experiment on A673, under 50% in the experiment on Hs 919.T., 52% in the experiment on RD-ES and under 50% with SK-ES-1.
Consider `NC(=O)N/N=C/c1ccc([N+](=O)[O-])o1` [Nitrofural/Nitrofurazone, Nitrofurazone], for which the inhibition at 1 µM with A673 was 52%; in the experiment with Hs 919.T., under 50%; in the experiment with RD-ES it was 52%; with SK-ES-1 it was 72%.
Take `CO[C@@H]1[C@@H](OC(N)=O)[C@@H](O)[C@H](Oc2ccc3c(O)c(NC(=O)c4ccc(O)c(CC=C(C)C)c4)c(=O)oc3c2C)OC1(C)C` [Novobiocin sodium]: the inhibition at 1 µM with A673 was 60%; in the experiment with Hs 919.T., under 50%; with RD-ES, 51%; with SK-ES-1, under 50%.
For the molecule `CCOC(=O)C1=C[C@@H](OC(CC)CC)[C@H](NC(C)=O)[C@@H](N)C1` [Oseltamivir], the inhibition at 1 µM is 95% in the experiment on A673, under 50% with Hs 919.T., 95% in the experiment on RD-ES and 98% in the experiment with SK-ES-1.
Consider `CCCOc1ccc2nc(NC(=O)OC)[nH]c2c1` [Oxibendazole], for which the inhibition at 1 µM in the experiment on A673 was 64%; with Hs 919.T., under 50%; with RD-ES, 80%; in the experiment on SK-ES-1, 84%.
In the same order, the values of `CC(=O)O[C@H]1C(=O)[C@@]2(C)[C@H]([C@H](OC(=O)c3ccccc3)[C@]3(O)C[C@H](OC(=O)[C@H](O)[C@@H](NC(=O)c4ccccc4)c4ccccc4)C(C)=C1C3(C)C)[C@]1(OC(C)=O)CO[C@@H]1C[C@@H]2O` [Paclitaxel/Taxol, Paclitaxel] are 96%, under 50%, 97% and 96%.
On to `Cc1cc(/C=C/c2ccc3cc(N(C)C)ccc3[n+]2C)c(C)n1-c1ccccc1` [Pyrvinium pamoate], for which the inhibition at 1 µM is 84% in the experiment on A673, under 50% in the experiment on Hs 919.T., 98% with RD-ES and 96% in the experiment with SK-ES-1.
In the same order, the values of `Cc1nc2ccc(CN(C)c3ccc(C(=O)N[C@@H](CCC(=O)O)C(=O)O)s3)cc2c(=O)[nH]1` [Raltitrexed] are 59%, under 50%, 80% and 51%.
The like results for `CO[C@H]1C[C@@H]2CC[C@@H](C)[C@@](O)(O2)C(=O)C(=O)N2CCCC[C@H]2C(=O)O[C@H]([C@H](C)C[C@@H]2CC[C@@H](O)[C@H](OC)C2)CC(=O)[C@H](C)/C=C(\C)[C@@H](O)[C@@H](OC)C(=O)[C@H](C)C[C@H](C)/C=C/C=C/C=C/1C` [Rapamycin] were, in that order, 67%, under 50%, 62% and 51%.
The like results for `Nc1nc(=S)c2ncn([C@@H]3O[C@H](CO)[C@@H](O)[C@H]3O)c2[nH]1` [Thioguanosine] were, in that order, 73%, under 50%, under 50% and 64%.
For the molecule `Clc1ccccc1CN1CCc2sccc2C1` [Ticlopidine], the inhibition at 1 µM was 66% in the experiment on A673, under 50% with Hs 919.T., under 50% in the experiment on RD-ES and under 50% in the experiment on SK-ES-1.
As for `CC[C@@]1(O)C(=O)OCc2c1cc1n(c2=O)Cc2cc3c(CN(C)C)c(O)ccc3nc2-1` [Topotecan HCl], the inhibition at 1 µM in the experiment with A673 is 97%; with Hs 919.T. it was under 50%; with RD-ES it was 97%; with SK-ES-1, 96%.
On to `O=c1[nH]c(=O)n([C@H]2C[C@H](O)[C@@H](CO)O2)cc1C(F)(F)F` [Trifluridine], for which the inhibition at 1 µM was under 50% in the experiment with A673, under 50% in the experiment with Hs 919.T., 71% with RD-ES and under 50% in the experiment with SK-ES-1.
